Results: patent US20090202430A1, “COMPOSITION FOR CYTOCOMPATIBLE, INJECTABLE, SELF-GELLING POLYSACCHARIDE SOLUTIONS FOR ENCAPSULATING AND DELIVERING LIVE CELLS OR BIOLOGICALLY ACTIVE FACTORS” (BIO SYNTECH CANADA INC., priority 2002, published 2009)

Columns and labels:
encapsulated cells = experiment: MTT assay (live cell metabolism) and Hoechst DNA assay (cell proliferation) of cells in cross-linked chitosan gels (FIG. 4B); type: cell-based; conditions: MTT and Hoechst DNA assays, after encapsulation
Description: In FIG. 4B, as shown by MTT assay on day 1 encapsulated cells, hydroxyethyl cellulose offers additional protection to cells immediately post-encapsulation.

cells = experiment: Viability of cells maintained in cross-linker solution (FIG. 4A); type: cell-based; conditions: cells incubated in 0.3% peroxide for the same time period (up to 72 hours)
Experimental: FIG. 4A illustrates viability of cells maintained in hydroxyethyl cellulose, or glyoxal cross-linker for over an hour;
In FIG. 4A, high viability is maintained after encapsulation in cross-linked chitosan with glyoxal, or hydroxyethyl cellulose-glyoxal. FIG. 4A illustrates that the active hydroxyethyl cellulose-cross linker is cytocompatible. Cells incubated up to 72 hours in active cross-linker remain over 95% viable. Cells incubated in 0.3% peroxide for the same time period are 100% non-viable. After mixing with chitosan and injecting through a syringe with a 26-gauge needle, encapsulated cells in solid gel remain over 95% viable. After mixing with chitosan and pouring into a petri, encapsulated cells in solid gel remain over 95% viable after 1 day of culture.

O=CC=O [glyoxal] was tested, and the “viability and proliferation of cells encapsulated in chitosan gel” value (encapsulated cells) was “viable after encapsulation and proliferate in the gel”.
With OO [peroxide] the non-viable cells (cells) was 100%.
